Assay results reported in US9693997B2, “Antiviral compounds” (priority 2013, dated 2017).
Where a name gives a salt, the structure may show the parent alone.

Assays:
[1] = test system: Pseudotyped HCV GT1b particles (HCVpp), entry into Huh7-high CD81 cells; assay: microbe, parasite or virus in culture; assay type: cell-based, HCV GT1b Con1 strain; conditions: Hepatitis C virus, GT1B, 72 h, read-out: HCVpp GT-1b (EC50, μM)
[2] = test system: pseudotyped VSV G particles (VSVpp) in Huh7-high CD81 cells; assay: microbe, parasite or virus in culture; assay type: cell-based, vesicular stomatitis virus; conditions: Vesicular stomatitis virus, 72 h, read-out: VSVpp (EC50, μM)

| SMILES | EC50 [1] | EC50 [2] |
| --- | --- | --- |
| CS(=O)(=O)Nc1ccc(-c2c(Cl)cc(Nc3n[nH]c(N)n3)cc2Cl)c(F)c1 [Compound 28, N-[4′-(5-Amino-1H-[1,2,4]triazol-3-ylamino)-2′,6′-dichloro-2-fluoro-biphenyl-4-yl]-methanesulfonamide] | 0.083 µM | 4.02 µM |
| Nc1nc(Nc2cc(Cl)c(-c3ccc(S(=O)(=O)C4CCCNC4)cc3)c(C(F)(F)F)c2)n[nH]1 (stereo not shown) [Compound 29, N*3*-[2-Chloro-4′-(piperidine-3-sulfonyl)-6-trifluoromethyl-biphenyl-4-yl]-1H-[1,2,4]triazole-3,5-diamine; hydrochloride] | 0.09 µM | 3.53 µM |
| CS(=O)(=O)c1ccc(-c2c(F)cc(Nc3n[nH]c(N)n3)cc2Cl)cc1 [Compound 30, N*3*-(2-Chloro-6-fluoro-4′-methanesulfonyl-biphenyl-4-yl)-1H-[1,2,4]triazole-3,5-diamine] | 0.107 µM | 1.53 µM |
| Nc1nc(Nc2cc(Cl)c(-c3ccc(S(=O)(=O)C[C@@H]4CCCN4)cc3)c(C(F)(F)F)c2)n[nH]1 [Compound 35, N*3*-[2-Chloro-4′-((S)-1-pyrrolidin-2-ylmethanesulfonyl)-6-trifluoromethyl-biphenyl-4-yl]-1H-[1,2,4]triazole-3,5-diamine; hydrochloride] | 0.127 µM | 4.79 µM |
| Nc1nc(Nc2cc(Cl)c(-c3ccc(S(=O)(=O)N4CCOCC4)cc3)c(C(F)(F)F)c2)n[nH]1 [Compound 36, N*3*-[2-Chloro-4′-(morpholine-4-sulfonyl)-6-trifluoromethyl-biphenyl-4-yl]-1H-[1,2,4]triazole-3,5-diamine] | 0.096 µM | 14.2 µM |
| Nc1nc(Nc2cc(Cl)c(-c3ccc(OCC4CNC4)cc3)c(C(F)(F)F)c2)n[nH]1 [Compound 37, N*3*-[4′-(Azetidin-3-ylmethoxy)-2-chloro-6-trifluoromethyl-biphenyl-4-yl]-1H-[1,2,4]triazole-3,5-diamine; hydrochloride] | 0.107 µM | > 10 µM |
| CS(=O)(=O)NCCc1ccc(-c2c(Cl)cc(Nc3n[nH]c(N)n3)cc2C(F)(F)F)cc1 [Compound 38, N-{2-[4′-(5-Amino-1H-[1,2,4]triazol-3-ylamino)-2′-chloro-6′-trifluoromethyl-biphenyl-4-yl]-ethyl}-methanesulfonamide] | 0.087 µM | 7.01 µM |
| Nc1nc(Nc2cc(Cl)c(-c3ccc(S(=O)(=O)CC4CCNCC4)cc3)c(C(F)(F)F)c2)n[nH]1 [Compound 40, N*3*-[2-Chloro-4′-(piperidin-4-ylmethanesulfonyl)-6-trifluoromethyl-biphenyl-4-yl]-1H-[1,2,4]triazole-3,5-diamine; hydrochloride] | 0.073 µM | 31.7 µM |
| Nc1nc(Nc2cc(Cl)c(-c3cccc(OC4CCNCC4)c3)c(C(F)(F)F)c2)n[nH]1 [Compound 41, N*3*-[2-Chloro-3′-(piperidin-4-yloxy)-6-trifluoromethyl-biphenyl-4-yl]-1H-[1,2,4]triazole-3,5-diamine; hydrochloride] | 0.166 µM | > 10 µM |
| CS(=O)(=O)n1ccc2cc(-c3c(Cl)cc(Nc4n[nH]c(N)n4)cc3Cl)ccc21 [Compound 42, N*3*-[3,5-Dichloro-4-(1-methanesulfonyl-1H-indol-5-yl)-phenyl]-1H-[1,2,4]triazole-3,5-diamine] | 0.212 µM | 2.27 µM |
| Nc1nc(Nc2cc(Cl)c(-c3ccc(N4CCCC4=O)cc3)c(Cl)c2)n[nH]1 [Compound 43, 1-[4′-(5-Amino-1H-[1,2,4]triazol-3-ylamino)-2′,6′-dichloro-biphenyl-4-yl]-pyrrolidin-2-one] | 0.169 µM | 15.4 µM |
| CS(=O)(=O)N1CCOc2ccc(-c3c(Cl)cc(Nc4n[nH]c(N)n4)cc3C(F)(F)F)cc21 [Compound 44, N*3*-[3-Chloro-4-(4-methanesulfonyl-3,4-dihydro-2H-benzo[1,4]oxazin-6-yl)-5-trifluoromethyl-phenyl]-1H-[1,2,4]triazole-3,5-diamine] | 0.236 µM | 4.92 µM |
| Nc1nc(Nc2cc(Cl)c(-c3ccc(S(=O)(=O)N4CCS(=O)(=O)CC4)cc3)c(C(F)(F)F)c2)n[nH]1 [Compound 45, N*3*-[2-Chloro-4′-(1,1-dioxo-1lambda*6*-thiomorpholine-4-sulfonyl)-6-trifluoromethyl-biphenyl-4-yl]-1H-[1,2,4]triazole-3,5-diamine] | 0.101 µM | > 10 µM |
| CS(=O)(=O)Nc1ccc(-c2c(Cl)cc(Nc3n[nH]c(N)n3)cc2Cl)cc1F [Compound 46, N-[4′-(5-Amino-1H-[1,2,4]triazol-3-ylamino)-2′,6′-dichloro-3-fluoro-biphenyl-4-yl]-methanesulfonamide] | 0.414 µM | > 10 µM |
| Nc1nc(Nc2cc(Cl)c(-c3ccc4c(c3)NC(=O)CO4)c(C(F)(F)F)c2)n[nH]1 [Compound 47, 6-[4-(5-Amino-1H-[1,2,4]triazol-3-ylamino)-2-chloro-6-trifluoromethyl-phenyl]-4H-benzo[1,4]oxazin-3-one] | 0.544 µM | 0.82 µM |
| NCCCCOc1ccc(-c2c(Cl)cc(Nc3n[nH]c(N)n3)cc2Cl)cc1 [Compound 49, N*3*-[4′-(4-Amino-butoxy)-2,6-dichloro-biphenyl-4-yl]-1H-[1,2,4]triazole-3,5-diamine; trifluoro-acetate] | 0.455 µM | > 10 µM |
| Nc1ccc(-c2c(Cl)cc(Nc3n[nH]c(N)n3)cc2Cl)cc1 [Compound 50, N*3*-(4′-Amino-2,6-dichloro-biphenyl-4-yl)-1H-[1,2,4]triazole-3,5-diamine] | 0.689 µM | > 10 µM |
| Nc1nc(Nc2cc(Cl)c(-c3ccc(S(=O)(=O)N4CCC[C@H]4C(=O)O)cc3)c(C(F)(F)F)c2)n[nH]1 [Compound 51, (S)-1-[4′-(5-Amino-1H-[1,2,4]triazol-3-ylamino)-2′-chloro-6′-trifluoromethyl-biphenyl-4-sulfonyl]-pyrrolidine-2-carboxylic acid] | 0.678 µM | > 10 µM |
| CC1(C)CS(=O)(=O)c2cc(-c3c(Cl)cc(Nc4n[nH]c(N)n4)cc3Cl)ccc2O1 [Compound 52, N*3*-[3,5-Dichloro-4-(2,2-dimethyl-4,4-dioxo-3,4-dihydro-2H-4lambda*6*-benzo[1,4]oxathiin-6-yl)-phenyl]-1H-[1,2,4]triazole-3,5-diamine] | 0.64 µM | > 10 µM |
| CCCCC(=O)Nc1ccc(-c2ccc(Nc3n[nH]c(N)n3)cc2)cc1 [Compound 53, Pentanoic acid [4′-(5-amino-1H-[1,2,4]triazol-3-ylamino)-biphenyl-4-yl]-amide] | 5.61 µM | 4.38 µM |
| CC(C)(C)CCN1CCCC(CS(=O)(=O)c2ccc(-c3c(Cl)cc(Nc4n[nH]c(N)n4)cc3C(F)(F)F)cc2)C1 (stereo not shown) [Compound 56, N*3*-{2-Chloro-4′-[1-(3,3-dimethyl-butyl)-piperidin-3-ylmethanesulfonyl]-6-trifluoromethyl-biphenyl-4-yl}-1H-[1,2,4]triazole-3,5-diamine; hydrochloride] | 0.046 µM | 3.74 µM |
| CC(C)(C)CCN1CCC(CS(=O)(=O)c2ccc(-c3c(Cl)cc(Nc4n[nH]c(N)n4)cc3C(F)(F)F)cc2)CC1 [Compound 57, N*3*-{2-Chloro-4′-[1-(3,3-dimethyl-butyl)-piperidin-4-ylmethanesulfonyl]-6-trifluoromethyl-biphenyl-4-yl}-1H-[1,2,4]triazole-3,5-diamine; hydrochloride] | 0.049 µM | 2.45 µM |
| CC(C)(C)NCc1ccc(-c2c(Cl)cc(Nc3n[nH]c(N)n3)cc2C(F)(F)F)cc1 [Compound 58, N*3*-[4′-(tert-Butylamino-methyl)-2-chloro-6-trifluoromethyl-biphenyl-4-yl]-1H-[1,2,4]triazole-3,5-diamine; hydrochloride] | 0.086 µM | 4.56 µM |
| CC(C)(C)OC(=O)N1CC(S(=O)(=O)c2ccc(-c3c(Cl)cc(Nc4n[nH]c(N)n4)cc3C(F)(F)F)cc2)C1 [Compound 59, 3-[4′-(5-Amino-1H-[1,2,4]triazol-3-ylamino)-6′-chloro-2′-trifluoromethyl-biphenyl-4-sulfonyl]-azetidine-1-carboxylic acid tert-butyl ester] | 0.008 µM | 5.78 µM |
| CC1(NS(=O)(=O)c2ccc(-c3c(Cl)cc(Nc4n[nH]c(N)n4)cc3C(F)(F)F)cc2)COC1 [Compound 60, 4′-(5-Amino-1H-[1,2,4]triazol-3-ylamino)-6′-chloro-2′-trifluoromethyl-biphenyl-4-sulfonic acid (3-methyl-oxetan-3-yl)-amide] | 0.014 µM | > 10 µM |
| CC(C)CCS(=O)(=O)c1ccc(-c2c(Cl)cc(Nc3n[nH]c(N)n3)cc2C(F)(F)F)cc1 [Compound 61, N*3*-[6-Chloro-4′-(3-methyl-butane-1-sulfonyl)-2-trifluoromethyl-biphenyl-4-yl]-1H-1,2,4-triazole-3,5-diamine] | 0.013 µM | > 10 µM |
| Nc1nc(Nc2cc(Cl)c(-c3ccc(S(=O)(=O)N4CCC(F)(F)C4)cc3)c(C(F)(F)F)c2)n[nH]1 [Compound 62, N*3*-[6-Chloro-4′-(3,3-difluoro-pyrrolidine-1-sulfonyl)-2-trifluoromethyl-biphenyl-4-yl]-1H-[1,2,4]triazole-3,5-diamine] | 0.02 µM | > 10 µM |
| CC1(O)CN(S(=O)(=O)c2ccc(-c3c(Cl)cc(Nc4n[nH]c(N)n4)cc3C(F)(F)F)cc2)C1 [Compound 63, 1-[4′-(5-Amino-1H-[1,2,4]triazol-3-ylamino)-6′-chloro-2′-trifluoromethyl-biphenyl-4-sulfonyl]-3-methyl-azetidin-3-ol] | 0.018 µM | 3.86 µM |
| Nc1nc(Nc2cc(Cl)c(-c3ccc(S(=O)(=O)CC4CC4)cc3)c(C(F)(F)F)c2)n[nH]1 [Compound 64, N*3*-(6-Chloro-4′-cyclopropylmethanesulfonyl-2-trifluoromethyl-biphenyl-4-yl)-1H-1,2,4-triazole-3,5-diamine] | 0.023 µM | 9.54 µM |
